In US8003345B2, “Antioxidant pharmaceutical compound, method for producing polypeptide and method of cure” (Institute of Cell Biophysics Russian Academy of Sciences, priority 2002, dated 2011):

How the values were obtained:
glutamine synthetase = assay: Comparative characteristics of peroxiredoxin activators (glutamine synthetase protection against metal-catalyzed oxidative system); format: biochemical; conditions: 50 μg peroxiredoxin VI, FIG. 11
Experimental: The antioxidant activity was determined from the degree of glutamine synthetase protection against metal-catalyzed oxidative system. The antioxidant effectiveness of thiols was determined in molar concentration, at which 50% protection of glutamine synthetase took place.
For determining the effectiveness of peroxiredoxin activation with dithiothreitol or with dihydrolipoic acid (natural activator), use is made of the ability of peroxiredoxin to protect glutamine synthetase from inactivation caused by the metal-catalyzed oxidative system.
The degree of the peroxiredoxin activity was determined from the protein concentration value, at which 50% preservation of the glutamine synthetase activity was observed.

[1] = system: tracheal epithelium of rat after application of lipopolysaccharide; assay: Inflammation of rat tracheal epithelium caused by lipopolysaccharide (LPS); format: in vivo
Experimental: The therapeutic properties of peroxiredoxin Prx VI in treating the upper respiratory tract of rat immediately after the application of LPS were checked on a group of 4 Wistar line rats weighing 150-200 grams. The application of LPS was carried out in the following manner. The rats were anesthetized with hexenal, and 100 μl of a lipopolysaccharide solution were introduced through a catheter (the lipopolysaccharide concentration was from 10^−9 to 10^−11 mg/ml, the total number of the used animals was 20). After the application of the lipopolysaccharide, the rats were maintained for a definite period of time (1 hour, 3 hours, 6 hours, 7 hours, 9 hours), then narcotized with hexenal (300 mg/kg weight), and a sample of the tracheal epithelial tissue was isolated. For histochemical investigations the isolated sample was placed into a fixing solution containing 2% of formaldehyde and 0.5% of glutaraldehyde. The tissue was dehydrated by sequential routing through ethyl alcohol with increasing concentration (40-100%). The tissue was embedded into LR white resin. The resin was polymerized at room temperature. 0.5 em-thick sections were made on an LKB ultratome (Sweden), using glass knives. The sections were stained with a hematoxylin-eosine and analyzed under a light microscope.
For biochemical investigations we scraped the epithelium with a thin spatula, washed off the scrape with physiological solution and centrifugated at 10000 g for 15 min. The concentration of hydrogen peroxide was by the luminescence method. […] After LPS, application of a solution of a composition based on peroxiredoxin Prx VI into the trachea was carried out. Preliminarily the rats were narcotized by intraperitoneal administration of hexenal (70 mg/kg), the animals were fixed on an operating table, and under visual control with the aid of a binocular lens, through a catheter of 1 mm in diameter, peroxiredoxin solution (20 to 100 μl) was introduced into the trachea. The peroxiredoxin concentration was from 0.5 to 5.0 mg/ml. A 0.9% solution of NaCl was used as the solvent. The application of the solution of the composition was carried out once, immediately after the application of LPS. The application of pure solvent, solutions of serum albumin (10 mg/ml) and of glutathione (10 mM) were used as control.
Histological investigation of the trachea was carried out 24 hrs after the LPS application.

[2] = system: tracheal epithelium of rat after application of lipopolysaccharide; assay: as above; format: in vivo; remark: listed apart in the source
[3] = system: glutamine synthetase of E.coli; conditions: DTT/Fe3+/O2 oxidative system, 3 mM activator, 10 min at 37° C.; FIG. 3
Experimental: Comparison of the protector properties of recombinant full-size Prx Vlhum with the protector properties of natural rat Prx VIrat and with the protector properties of N-terminal ΔPrx V1hum in terms of protecting glutamine synthetase of E.coli from inactivation in a model oxidative system in vitro.
For determining the activity of different types of peroxiredoxins, their ability to protect glutamine synthetase from the DTT/Fe^+3/O2 oxidative system is measured. Glutamine synthetase is isolated from cells of the E.coli DH5α strain (Streicher S. L., Tyler B., 1980) and inactivated in the presence of a Fe^3+/O2 oxidative system and a peroxiredoxin activator—in the model oxidative system generating free radicals (Kim K. et al., 1988). […] The residual activity of glutamine synthetase is assessed by adding to the sample 200 μl of a reaction mixture which comprises: ADP, 0.4 mM; glutamine, 150 mM; K—AsO4, 10 mM; NH2OH, 20 mM; MnCl2, 0.4 mM; HEPES, 100 mM, pH 7.4. […] The protector properties of peroxiredoxin for protecting glutamine synthetase of E.coli from inactivation are determined as the ratio of the remaining activity of the enzyme after the inactivation in the presence of different concentrations of peroxiredoxin to the activity of non-inactivated glutamine synthetase.

skin cuts of rats = assay: Treating skin wounds (cuts) in rats; format: in vivo, rat; conditions: in 5 days; 0.5 mg/ml in 0.15 M NaCl, bandages changed once a day; against control; FIG. 10
Experimental: Rats were preliminarily narcotized by intraperitoneal introduction of hexenal (70 mg/kg). The animals were fixed on an operating table, and then 2-3 mm deep and 1 cm long cuts were made in the skin of both paws with the help of a razor blade. Control cuts were irrigated with physiological solution and a bactericidal plaster was applied; in the case of using peroxiredoxin, the wound was irrigated with a solution of recombinant Prx Vlhum or of its fragment ΔPrx Vlhum in 0.15 M NaCl in 0.5 mg/ml concentration, and a gauze bandage soaked with the same solutions was applied. The bandages were changed once a day.

[4] = system: T-lymphocytes from the spleen of line NRRI rats stimulated with concavalin A; assay: Proliferation of concanavalin A-stimulated T-lymphocytes (3H-thymidine inclusion); format: cell-based; conditions: 0.1-1.0 mg/ml concentration, against cells stimulated only with concavalin A
Experimental: (§1) The cytotoxicity is determined from the influence of recombinant Prx V1hum or of natural rat Prx V1rat on the level of proliferation of line L929 human lymphoblastoma cells and of T-lymphocytes from the spleen of line NRRI rats stimulated with concavalin A.
(§2) Cells of two lines with the concentration of 10^4 cells/ml medium were cultivated in RPMI 1640 containing 5% of bovine fetal serum. The stimulation of T-lymphocytes was carried out with the 0.1 μg/ml concentration of concavalin. In the case of T-lymphocytes the proliferation level was determined from the inclusion of ^3H-thymidine. The number of live line L929 cells was determined in a 96-cell plate with the aid of a Trypan stain, followed by scanning on a Multiscan multichannel photometer (LKB, Sweden).

[5] = Cytotoxicity: number of live line L929 cells; format: cell-based, human; conditions: 0.1-10 μg/ml concentration; Trypan stain
Experimental: as §1, §2

For `O=C(O)CCCC[C@@H](S)CCS` (racemic) [dihydrolipoic acid], the “antioxidant effectiveness of thiols (degree of glutamine synthetase protection)” value (glutamine synthetase) was “almost equal to dithiothreitol and substantially surpasses the effectiveness of lipoic acid”.

With `N[C@@H](CCC(=O)N[C@@H](CS)C(=O)NCC(=O)O)C(=O)O` [Glutathione, glutathione, reference compound] the “Integrity of tracheal epithelium (according to histological data)” value (shortened to “Integrity … (according to histological data)”) ([1]; Time after the action of LPS: 1 hour) was 30%, the “Integrity … (according to histological data)” value ([1]; Time after the action of LPS: 3 hours) was 20% and the “Integrity … (according to histological data)” value ([1]; Time after the action of LPS: 6 hours) was 10%. For the same molecule, the “Integrity … (according to histological data)” value ([2]; Treatment 24 hours later for 5 days and the integrity of epithelium 2 weeks later) was 20% and the “effect on tracheal epithelium after LPS (in words)” value ([2]; other antioxidants, see Table 2) was “no significant effect”.

B1: ΔPrx VIhum: N-terminal fragment of human peroxiredoxin Prx VI (SEQ ID NO: 2), length 177 a.b., molecular mass 19691.61 Da (protein, listed as Homo sapiens)
chain: MPGGLLLGDVAPNFEANTTVGRIRFHDFLGDSWGILFSHPRDFTPVCTTELGRAAKLAPEFAKRNVKLIALSIDSVEDHLAWSKDINAYNCEEPTEKLPFPIIDDRNRELAILLGMLDPAEKDEKGMPVTARVVFVFGPDKKLKLSILYPATTGRNFDEILRVVISLQLTAEKRVATPVDWKDGDSVMVLPTIPEEEAKKLFPKGVFTKELPSGKKYLRYTPQP
For B1, the “protector properties: antioxidant characteristics in protecting glutamine synthetase from inactivation” value [3] was “close to the recombinant full-size Prx Vlhum” and the “healing of the wound” value (skin cuts of rats) was “almost complete healing of the wound”.

B2: Prx VIrat: natural peroxiredoxin isolated from the olfactory epithelium of a Wistar line rat, 223 amino acids (protein, UniProt O35244 2-224, looked up)
Peroxiredoxin-6: PGGLLLGDEAPNFEANTTIGHIRFHDFLGDSWGILFSHPRDFTPVCTTELGRAAKLAPEFAKRNVKLIALSIDSVEDHFAWSKDINAYNGAAPTEKLPFPIIDDKDRDLAILLGMLDPAEKDEKGMPVTARVVFIFGPDKKLKLSILYPATTGRNFDEILRVVDSLQLTASNPVATPVDWKKGESVMVLPTLPEEEAKQLFPKGVFTKELPSGKKYLRYTPQP
In the case of B2, the “cell proliferation level of T-lymphocytes stimulated with concavalin A” value [4] is reported as “increased approximately twofold” and the “effect on the number of live line L929 cells” value [5] is reported as “did not produce any effect”.
